Measured values from PubChem BioAssay (NCI).
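Step 1: Grow cells in 96-well plates. Step 2: Expose to compound for 48 hours at 5 concentrations. Step 3: Interpolate endpoints linearly; if unreached, use highest concentration. Here, GI50 denotes the concentration required for 50% inhibition of growth. TGI: total growth inhibition.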

How the values were obtained:
Assay in all cases: growth of human tumour cells (NCI), 48 h
K-562 leukemia = test system: K-562 leukemia
HOP-62 NSCLC = test system: HOP-62 NSCLC
COLO 205 colon = test system: COLO 205 colon
MOLT-4 leukemia = test system: MOLT-4 leukemia
UACC-257 melanoma = test system: UACC-257 melanoma
SK-MEL-2 melanoma = test system: SK-MEL-2 melanoma
SNB-75 CNS = test system: SNB-75 CNS
SF-268 CNS = test system: SF-268 CNS
A549 NSCLC = test system: A549 NSCLC
SF-539 CNS = test system: SF-539 CNS

O=C1OCc2cc3cc4c(cc3c(-c3ccc5c(c3)OCO5)c21)OCO4 (tested in a mixture with another compound)
TGI (K-562 leukemia): > 100 µM
TGI (HOP-62 NSCLC): 34.9 µM
TGI (COLO 205 colon): 75.1 µM
TGI (MOLT-4 leukemia): 72.5 µM
TGI (UACC-257 melanoma): > 100 µM
TGI (SK-MEL-2 melanoma): 68 µM

CN1CC(CNC(=O)OCc2ccccc2)CC2c3cccc4c3c(cn4C)CC21 (stereo unspecified)
GI50 (SNB-75 CNS): 1.9 µM
TGI (SNB-75 CNS): 4.68 µM
GI50 (SF-268 CNS): 3.48 µM
TGI (SF-268 CNS): 13.4 µM
GI50 (A549 NSCLC): 2.22 µM
TGI (A549 NSCLC): 5.24 µM
GI50 (SF-539 CNS): 1.64 µM
TGI (SF-539 CNS): 3.24 µM
GI50 (K-562 leukemia): 1.69 µM
TGI (K-562 leukemia): 4.44 µM
GI50 (HOP-62 NSCLC): 1.52 µM
TGI (HOP-62 NSCLC): 2.98 µM
GI50 (COLO 205 colon): 1.37 µM
TGI (COLO 205 colon): 2.75 µM
GI50 (MOLT-4 leukemia): 2.36 µM
TGI (MOLT-4 leukemia): 5.25 µM
GI50 (UACC-257 melanoma): 1.42 µM
TGI (UACC-257 melanoma): 2.81 µM
GI50 (SK-MEL-2 melanoma): 1.88 µM
TGI (SK-MEL-2 melanoma): 3.45 µM

COc1ccc(OC)c(CC(C)N)c1 (stereo unspecified)
TGI (SNB-75 CNS): > 100 µM
TGI (SF-268 CNS): > 100 µM
TGI (A549 NSCLC): > 100 µM
TGI (SF-539 CNS): > 100 µM
TGI (K-562 leukemia): > 100 µM
TGI (HOP-62 NSCLC): > 100 µM
TGI (COLO 205 colon): > 100 µM
TGI (MOLT-4 leukemia): > 100 µM
TGI (UACC-257 melanoma): > 100 µM
TGI (SK-MEL-2 melanoma): > 100 µM

COc1c(OC/C=C(\C)CCC=C(C)C)ccc2ccc(=O)oc12
TGI (SNB-75 CNS): > 100 µM
TGI (SF-268 CNS): > 100 µM
TGI (A549 NSCLC): > 100 µM
TGI (SF-539 CNS): > 100 µM
TGI (K-562 leukemia): > 100 µM
TGI (HOP-62 NSCLC): > 100 µM
TGI (COLO 205 colon): > 100 µM
TGI (MOLT-4 leukemia): > 100 µM
TGI (UACC-257 melanoma): > 100 µM
TGI (SK-MEL-2 melanoma): > 100 µM

CC(C)(C)OC(=O)NC1CCC(C(C)(C)C)CC1 (stereo unspecified)
TGI (SNB-75 CNS): > 100 µM
TGI (SF-268 CNS): > 100 µM
TGI (A549 NSCLC): > 100 µM
TGI (SF-539 CNS): > 100 µM
TGI (K-562 leukemia): > 100 µM
TGI (HOP-62 NSCLC): > 100 µM
TGI (COLO 205 colon): > 100 µM
TGI (MOLT-4 leukemia): 67.2 µM
TGI (UACC-257 melanoma): > 61.8 µM
TGI (SK-MEL-2 melanoma): 71.3 µM

C=CCSSCC=C
TGI (SNB-75 CNS): > 100 µM
TGI (SF-268 CNS): > 90.5 µM
TGI (A549 NSCLC): > 100 µM
TGI (SF-539 CNS): > 71.9 µM
TGI (K-562 leukemia): > 100 µM
TGI (HOP-62 NSCLC): > 100 µM
TGI (COLO 205 colon): > 100 µM
TGI (MOLT-4 leukemia): > 100 µM
TGI (UACC-257 melanoma): > 100 µM
TGI (SK-MEL-2 melanoma): > 100 µM

CCCC(=O)O.CCCC(=O)O.CCCC(=O)O.CCCC(=O)O.[Rh].[Rh]
GI50 (SNB-75 CNS): 0.423 µM
TGI (SNB-75 CNS): 2.62 µM
GI50 (K-562 leukemia): 0.026 µM
TGI (K-562 leukemia): 0.273 µM
GI50 (COLO 205 colon): 0.0186 µM
TGI (COLO 205 colon): 0.0406 µM
GI50 (MOLT-4 leukemia): 0.0315 µM
TGI (MOLT-4 leukemia): 0.141 µM
GI50 (SK-MEL-2 melanoma): 0.285 µM
TGI (SK-MEL-2 melanoma): 0.896 µM

O=C1OC2CC=CC1C2 (stereo unspecified)
TGI (SNB-75 CNS): > 100 µM
TGI (SF-268 CNS): > 100 µM
TGI (A549 NSCLC): > 100 µM
TGI (SF-539 CNS): > 100 µM
TGI (K-562 leukemia): > 100 µM
TGI (HOP-62 NSCLC): > 100 µM
TGI (COLO 205 colon): > 100 µM
TGI (MOLT-4 leukemia): > 100 µM
TGI (UACC-257 melanoma): > 100 µM
TGI (SK-MEL-2 melanoma): > 100 µM

SC1CCCN(Cc2ccccc2)C1 (stereo unspecified)
TGI (SNB-75 CNS): > 100 µM
TGI (SF-268 CNS): > 100 µM
TGI (A549 NSCLC): > 100 µM
TGI (SF-539 CNS): > 100 µM
TGI (K-562 leukemia): 60.6 µM
TGI (HOP-62 NSCLC): > 100 µM
TGI (COLO 205 colon): 33.7 µM
TGI (MOLT-4 leukemia): 78.2 µM
TGI (UACC-257 melanoma): > 100 µM
TGI (SK-MEL-2 melanoma): > 100 µM

O=C(/C=C/c1ccccc1)N1CCCCC1
TGI (SNB-75 CNS): 89.2 µM
TGI (SF-268 CNS): > 100 µM
TGI (A549 NSCLC): > 100 µM
TGI (SF-539 CNS): > 100 µM
TGI (K-562 leukemia): > 100 µM
TGI (HOP-62 NSCLC): > 100 µM
TGI (COLO 205 colon): > 100 µM
TGI (MOLT-4 leukemia): > 100 µM
TGI (UACC-257 melanoma): > 100 µM
TGI (SK-MEL-2 melanoma): > 100 µM

C=C1C(=O)OC2CC1CCC1(C)OC1CCC(C)=CCCC2(C)O (stereo unspecified)
TGI (SNB-75 CNS): 19.5 µM
TGI (SF-268 CNS): 14.2 µM
TGI (A549 NSCLC): 26.9 µM
TGI (SF-539 CNS): 10.5 µM
TGI (K-562 leukemia): 13.7 µM
TGI (HOP-62 NSCLC): 19.4 µM
TGI (COLO 205 colon): 5.95 µM
TGI (MOLT-4 leukemia): 9.2 µM
TGI (UACC-257 melanoma): 13.9 µM
TGI (SK-MEL-2 melanoma): 14.2 µM
